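How tested: cells in 96-well plates exposed to compound for 48 hours at five concentrations. At the TGI there is no net growth.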
Key:
Experiment in all cases: inhibition of tumour cell growth, NCI panel, 48 h
786-0 renal = tested on: 786-0 renal
A498 renal = tested on: A498 renal
A549 NSCLC = tested on: A549 NSCLC
ACHN renal = tested on: ACHN renal
BT-549 breast = tested on: BT-549 breast
CAKI-1 renal = tested on: CAKI-1 renal
COLO 205 colon = tested on: COLO 205 colon
EKVX NSCLC = tested on: EKVX NSCLC
HCC-2998 colon = tested on: HCC-2998 colon
HCT-116 colon = tested on: HCT-116 colon
HCT-15 colon = tested on: HCT-15 colon
HL-60(TB) leukemia = tested on: HL-60(TB) leukemia
HOP-62 NSCLC = tested on: HOP-62 NSCLC
HOP-92 NSCLC = tested on: HOP-92 NSCLC
HS 578T breast = tested on: HS 578T breast
HT29 colon = tested on: HT29 colon
IGROV1 ovarian = tested on: IGROV1 ovarian
K-562 leukemia = tested on: K-562 leukemia
KM12 colon = tested on: KM12 colon
LOX IMVI melanoma = tested on: LOX IMVI melanoma
M14 melanoma = tested on: M14 melanoma
MALME-3M melanoma = tested on: MALME-3M melanoma
MDA-MB-231 breast = tested on: MDA-MB-231 breast
MDA-MB-435 = tested on: MDA-MB-435
MDA-N = tested on: MDA-N
NCI-H226 lung = tested on: NCI-H226 lung
NCI-H23 lung = tested on: NCI-H23 lung
NCI-H460 lung = tested on: NCI-H460 lung
NCI-H522 lung = tested on: NCI-H522 lung
NCI/ADR-RES ovarian = tested on: NCI/ADR-RES ovarian
OVCAR-5 ovarian = tested on: OVCAR-5 ovarian
OVCAR-8 ovarian = tested on: OVCAR-8 ovarian
PC-3 prostate = tested on: PC-3 prostate
RPMI-8226 leukemia = tested on: RPMI-8226 leukemia
RXF 393 renal = tested on: RXF 393 renal
SF-295 CNS = tested on: SF-295 CNS
SF-539 CNS = tested on: SF-539 CNS
SK-MEL-2 melanoma = tested on: SK-MEL-2 melanoma
SK-MEL-28 melanoma = tested on: SK-MEL-28 melanoma
SK-MEL-5 melanoma = tested on: SK-MEL-5 melanoma
SN12C renal = tested on: SN12C renal
SNB-19 CNS = tested on: SNB-19 CNS
SNB-75 CNS = tested on: SNB-75 CNS
SW-620 colon = tested on: SW-620 colon
T-47D breast = tested on: T-47D breast
TK-10 renal = tested on: TK-10 renal
UACC-257 melanoma = tested on: UACC-257 melanoma
UACC-62 melanoma = tested on: UACC-62 melanoma
UO-31 renal = tested on: UO-31 renal
CCRF-CEM leukemia = tested on: CCRF-CEM leukemia
DU-145 prostate = tested on: DU-145 prostate
MCF7 breast = tested on: MCF7 breast
MOLT-4 leukemia = tested on: MOLT-4 leukemia
OVCAR-3 ovarian = tested on: OVCAR-3 ovarian
OVCAR-4 ovarian = tested on: OVCAR-4 ovarian
SF-268 CNS = tested on: SF-268 CNS

Cc1cccc(/C=N/NC(=S)N2CCCCCC2)n1
TGI (786-0 renal): 0.775 µM | TGI (A498 renal): 13.5 µM | TGI (A549 NSCLC): 17.2 µM | TGI (ACHN renal): 1.71 µM | TGI (BT-549 breast): 14.4 µM | TGI (CAKI-1 renal): 8.86 µM | TGI (COLO 205 colon): 0.632 µM | TGI (EKVX NSCLC): 9.32 µM | TGI (HCC-2998 colon): > 100 µM | TGI (HCT-116 colon): 0.11 µM | TGI (HCT-15 colon): > 36.3 µM | TGI (HL-60(TB) leukemia): 0.241 µM | TGI (HOP-62 NSCLC): 1.01 µM | TGI (HOP-92 NSCLC): > 89.1 µM | TGI (HS 578T breast): > 100 µM | TGI (HT29 colon): > 40 µM | TGI (IGROV1 ovarian): 1.55 µM | TGI (K-562 leukemia): > 100 µM | TGI (KM12 colon): > 44.7 µM | TGI (LOX IMVI melanoma): 17 µM | TGI (M14 melanoma): 0.441 µM | TGI (MALME-3M melanoma): 25.3 µM | TGI (MDA-MB-231 breast): 15.2 µM | TGI (MDA-MB-435): 38.9 µM | TGI (MDA-N): > 45.9 µM | TGI (NCI-H226 lung): 7.46 µM | TGI (NCI-H23 lung): > 37.1 µM | TGI (NCI-H460 lung): 1.18 µM | TGI (NCI-H522 lung): 0.788 µM | TGI (NCI/ADR-RES ovarian): 0.202 µM | TGI (OVCAR-5 ovarian): > 72.2 µM | TGI (OVCAR-8 ovarian): 0.428 µM | TGI (PC-3 prostate): > 72.5 µM | TGI (RPMI-8226 leukemia): 0.374 µM | TGI (RXF 393 renal): 38.9 µM | TGI (SF-295 CNS): 31.7 µM | TGI (SF-539 CNS): 0.549 µM | TGI (SK-MEL-2 melanoma): 19.2 µM | TGI (SK-MEL-28 melanoma): > 100 µM | TGI (SK-MEL-5 melanoma): 2 µM | TGI (SN12C renal): 0.805 µM | TGI (SNB-19 CNS): > 100 µM | TGI (SNB-75 CNS): 0.758 µM | TGI (SW-620 colon): > 100 µM | TGI (T-47D breast): > 100 µM | TGI (TK-10 renal): 4.8 µM | TGI (UACC-257 melanoma): 1.91 µM | TGI (UACC-62 melanoma): 1.08 µM | TGI (UO-31 renal): 9.91 µM

CCCN=C1Nc2ccccc2[C@@H]2N(C)c3ccccc3C(C)C[C@]12C (stereo partly drawn)
TGI (786-0 renal): 33.9 µM | TGI (A498 renal): 28.6 µM | TGI (A549 NSCLC): > 100 µM | TGI (ACHN renal): 60.5 µM | TGI (CAKI-1 renal): 84.5 µM | TGI (CCRF-CEM leukemia): 62.9 µM | TGI (COLO 205 colon): 38 µM | TGI (DU-145 prostate): > 100 µM | TGI (EKVX NSCLC): > 100 µM | TGI (HCC-2998 colon): 26.3 µM | TGI (HCT-116 colon): 30.4 µM | TGI (HCT-15 colon): 56.4 µM | TGI (HL-60(TB) leukemia): 56.1 µM | TGI (HOP-62 NSCLC): 32.1 µM | TGI (HS 578T breast): 41.9 µM | TGI (HT29 colon): 27.8 µM | TGI (IGROV1 ovarian): 43.5 µM | TGI (K-562 leukemia): > 100 µM | TGI (KM12 colon): 34.9 µM | TGI (LOX IMVI melanoma): 27.7 µM | TGI (M14 melanoma): 33 µM | TGI (MALME-3M melanoma): 32.5 µM | TGI (MCF7 breast): 49.3 µM | TGI (MDA-MB-231 breast): 29.8 µM | TGI (MDA-MB-435): 34 µM | TGI (MDA-N): 38.7 µM | TGI (MOLT-4 leukemia): 45.7 µM | TGI (NCI-H226 lung): 73.4 µM | TGI (NCI-H23 lung): 37.3 µM | TGI (NCI-H460 lung): 55.4 µM | TGI (NCI-H522 lung): 39.8 µM | TGI (NCI/ADR-RES ovarian): 52 µM | TGI (OVCAR-3 ovarian): 54.1 µM | TGI (OVCAR-4 ovarian): 23.4 µM | TGI (OVCAR-5 ovarian): 46.8 µM | TGI (OVCAR-8 ovarian): 28.9 µM | TGI (PC-3 prostate): 40.8 µM | TGI (RPMI-8226 leukemia): 41.7 µM | TGI (RXF 393 renal): 37.2 µM | TGI (SF-268 CNS): 54.6 µM | TGI (SF-295 CNS): 30.9 µM | TGI (SF-539 CNS): 30.5 µM | TGI (SK-MEL-2 melanoma): 28.1 µM | TGI (SK-MEL-28 melanoma): 33.5 µM | TGI (SK-MEL-5 melanoma): 29.2 µM | TGI (SN12C renal): > 100 µM | TGI (SNB-19 CNS): 44.8 µM | TGI (SNB-75 CNS): 49.8 µM | TGI (SW-620 colon): 36 µM | TGI (T-47D breast): 49.6 µM | TGI (TK-10 renal): 34.2 µM | TGI (UACC-257 melanoma): 25.6 µM | TGI (UACC-62 melanoma): 33.2 µM | TGI (UO-31 renal): 98.9 µM
